Experimental data published in article PMC12196476, “New Nitrogen-, Oxygen-, and Sulfur-Containing Heterocyclic Compounds as Anti-Colon Cancer Agents: Synthesis, Multitargeted Evaluations, Molecular Docking Simulations and ADMET Predictions” (Pharmaceuticals, 2025).
“And” between values parts separate entries of the source, which are not always exact repeats. Identical values can stand only once.

Key:
[1] = test system: LoVo colon carcinoma cells; experiment: Cell viability, LDH release assay, LoVo; settings: Homo sapiens, LoVo, 48 h
[2] = test system: Bax, Bcl-2 and Casp-3 genes expression in LoVo cells; experiment: qRT-PCR of Bax, Bcl-2 and Casp-3 gene expression, LoVo; assay type: cell-based, human; settings: 30 µg/mL, 48 h
Description: (§1) To investigate molecular events downstream of ROS generation, we evaluated mRNA expression levels of key regulators of mitochondrial apoptosis—Bax and Bcl-2—using qRT-PCR. […] As a result, the Bax/Bcl-2 ratios were calculated to be 12.63 in LoVo cells and 8.71 in HCT-116 cells, reflecting a pronounced pro-apoptotic shift. This alteration in the Bax/Bcl-2 ratio strongly supports the activation of the mitochondrial apoptotic pathway.
(§2) To confirm activation of the execution phase of apoptosis, Casp-3 mRNA levels were evaluated by qRT-PCR.
(§3) The expression levels of these genes were determined using a quantitative real-time PCR technique. […]
(§4) S3.2.9. Quantification of the Expression Levels of Bax, Bcl-2 and Caspase-3 Genes
(§5) Human colon cancer cell lines (HCT-116 and LoVo) were cultured for 24 h in a 25 mL flask at
(§6) a density of 1 * 10^6 cells/flask as described in section S3.2.4. Cells were treated with 30 µg/mL
(§7) of compound 3d in 2 mL of fresh medium containing 1% FBS, or with 0.25 % DMSO as a
(§8) negative control, for 48 h. Afterwards, cells were washed with ice-cold phosphate-buffered
(§9) saline (PBS) and adherent cells were detached using trypsin solution.
(§10) Table S7 lists primers amplifying 100-200 bp of Bax, Bcl-2 and Caspase-3 genes. These primers
(§11) were designed using primer blast software (https://www.ncbi.nlm.nih.gov/tools/primer-
(§12) Table S7. Primer sequences for Bax, Bcl-2, Caspase-3, and GAPDH (control)
(§13) Gene Primer sequence (5’ to 3’)
(§14) Bcl-2 F 5’-[…] -3’,
(§15) Caspase 3 F 5’- […]-3’,
(§16) GAPDH F 5’- […]-3’
(§17) • Reverse-Transcription PCR (RT-PCR)
(§18) The total RNA was extracted from untreated and treated cells using the RNeasy Mini Kit
(§19) (Qiagen, DE). A Nanodrop 8000 spectrophotometer (Thermo Fisher Scientific, USA) was
(§20) used to check the RNA purity and quality. The Hyperscript Kit (GeneAll, KR) and random
(§21) hexamers (GeneAll, KR) were used as described in the manufacturer’s protocol to reverse-
(§22) transcript 1µg of RNA from each sample into cDNA.
(§23) • Quantitative real-time PCR
(§24) The mRNA expression of Bax, Bcl-2, and Caspase-3 were measured using QuantStudio
(§25) 7Flex Detection System (Applied Biosystems, USA). The iScript One-Step RT-PCR Kit with
(§26) SYBR Green (Cat no: 170-8892; Bio-Rad, CA, USA) was used to carry out the reactions for
(§27) the synthesis of cDNA. Each cDNA sample (5 µl) was added in a 20 µL PCR mixture

LoVo cells = experiment: Intracellular ROS level (human ROS ELISA kit), LoVo; assay type: cell-based; settings: 30 µg/mL, 48 h
Description: (§28) To determine whether compound 3d induces oxidative stress, intracellular ROS levels were quantified after treatment (30 µg/mL, 48 h) using a human ROS ELISA kit.
(§29) A Human ROS ELISA Kit was used to measure the intracellular accumulation of ROS in the 3d-treated LoVo and HCT-116 cells. […]
(§30) medium served used as negative and positive controls, respectively. Percentages of viable cells […]
(§31) wells (final concentration of 100 μg/mL), compared to the negative control, and expressed as mean value (%) ± SD from two replicates. Graphing dose-response curves representing the compound […]
(§32) (HUVECs) at final concentration of 100 μg/mL . HUVECs were grown in Dulbecco’s Modified Eagle’s Medium supplemented with 10% FBS, 2 mM glutamine (Sigma Aldrich), 100 units/mL penicillin and […] streptomycin (Life Technologies; Paisley, UK).
(§33) S3.2.5. Cell cycle assay.
(§34) HCT-116 and LoVo cultures upon treatment with compound 3d. HCT-116 and LoVo carcinoma […]
(§35) μg/mL for 48 h. […] Then, cells […]
(§36) were fixed by mixing […] of 90% cold ethanol and stained with propidium iodide (PI) for 1 h at 37 °C. RNase A (10 mg/mL) was added in order to […] the ability of PI to bind only to DNA […]
(§37) S3.2.6. Annexin-V-FITC assay. […]
(§38) treatment with compound 3d. […]
(§39) of stained cancerous cells were determined. […]
(§40) carcinoma cells treated with compound 3d was assessed using the TMRE Mitochondrial Membrane

HCT-116 cells = experiment: Intracellular ROS level (human ROS ELISA kit), HCT-116; assay type: cell-based; settings: 30 µg/mL, 48 h
Description: as §28, §29, §30, §31, §32, §33, §34, §35, §36, §37, §38, §39, §40

[3] = test system: Bax, Bcl-2 and Casp-3 genes expression in HCT-116 cells; experiment: qRT-PCR of Bax, Bcl-2 and Casp-3 gene expression, HCT-116; assay type: cell-based, human; settings: 30 µg/mL, 48 h
Description: as §1, §2, §3, §4, §5, §6, §7, §8, §9, §10, §11, §12, §13, §14, §15, §16, §17, §18, §19, §20, §21, §22, §23, §24, §25, §26, §27

[4] = relative to untreated controls, normalized to GAPDH

IC50 ([1]; read-out: Mean IC50 Values in µM ± SD, LoVo cells): 157 µM
Structure (SMILES): COc1cc(/C=N/c2ncnc3sc4c(c23)CCCC4)cc(OC)c1OC [Compound 3d, (E)-N-(5,6,7,8-Tetrahydrobenzo[4,5]thieno[2,3-d]pyrimidin-4-yl)-1-(3,4,5-trimethoxyphenyl)methanimine]
viability at 100 µg/mL ([1]; read-out: Mean % of viable cells ± SD, LoVo, 100 µg/mL, 48 h, LDH release assay): < 29%
Bax/Bcl-2 ratio, LoVo cells [2]: 12.63
Bax mRNA expression, fold of control (LoVo) [2, 4]: 3.03 ± 0.41 fold
Bcl-2 mRNA expression, fold of control (LoVo) [2, 4]: 0.24 ± 0.03 fold
Casp-3 mRNA expression, fold of control (LoVo) [2, 4]: 5.35 ± 0.33 fold
ROS, Fold of control, LoVo (LoVo cells): 2.6
[ROS] pg/mL ± SD, LoVo (LoVo cells; control 168.6 ± 6.5, two independent experiments): 434.5 ± 20.3 pg/mL and 434.5 pg/mL
ROS, Fold of control, HCT-116 (HCT-116 cells): 2.0
[ROS] pg/mL ± SD, HCT-116 (HCT-116 cells; control 143.5 ± 6.8, two independent experiments): 290.1 ± 12.7 pg/mL and 290.1 pg/mL
Bax/Bcl-2 ratio, HCT-116 cells [3]: 8.71
Bax mRNA expression, fold of control (HCT-116) [3, 4]: 3.57 ± 0.18 fold
Bcl-2 mRNA expression, fold of control (HCT-116) [3, 4]: 0.41 ± 0.04 fold
Casp-3 mRNA expression, fold of control (HCT-116) [3, 4]: 4.50 ± 0.40 fold
